Data on four compounds can be found in patent US20130345419A1, “AZOLE DERIVATIVE” (TAISHO PHARMACEUTICAL CO., LTD., priority 2011, published 2013).

Values after ≈ are worked out from the molar mass of the structure shown.

By solubility is commonly meant the concentration that dissolves in the medium under given conditions. One may read the IC50 as the midpoint of a concentration-inhibition curve.

The nature of data set [1]: Test 2: dissolution test in 1,3-butylene glycol/water/ethanol base. As to conditions: base: 5 g 1,3-butylene glycol + 10 g water, ethanol to 100 mL, stirred at 25° C. for 7 days, HPLC. The format is physicochemical. How it is done: (Test 2) Dissolution Test
To 5 g of 1,3-butylene glycol, 10 g of water was added and the mixture was stirred until homogeneity; thereafter, ethanol was added to make a total volume of 100 mL, whereby a base was prepared.

For data set [2], the target named is T1, human recombinant FKBP12 (Homo sapiens, UniProt P62942).
T1 construct: purchased Sigma F-5398
T1 sequence (P62942 whole entry): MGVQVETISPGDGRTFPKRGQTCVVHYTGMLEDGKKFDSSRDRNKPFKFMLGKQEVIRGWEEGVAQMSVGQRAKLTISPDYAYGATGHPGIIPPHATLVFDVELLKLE
Briefly: Test 1: immunophilin FKBP12 rotamase (peptidylprolyl isomerase) inhibiting activity. In kind it is biochemical. As to conditions: 12 nM human recombinant FKBP12, substrate succinyl-Ala-Phe-Pro-Phe-paranitroanilide 48 μM, 4° C.; read-out: PKBP12 rotamase inhibiting activity IC50. How it is done:
(Test 1) Test for Measuring Immunophilin FKBP12 Rotamase Activity
The rotamase (peptidylprolyl isomerase) inhibiting activity of each test compound was measured by a known method (Harding et al., Nature 341, 758-760, 1989; Holts et al., J. Am. Chem. Soc. 115, 9925-9938, 1993.) To be more specific, a plastic cuvette was charged with 35 mM HEPES (pH 7.8), 12 nM human recombinant FKBP12 (Sigma, F-5398), 0.4 mg/mL α-chymotrypsin, and a test compound dissolved in DMSO at varying concentrations (DMSO's final concentration was 0.1%.) Subsequently, 24 mM of the substrate peptide, succinyl-Ala-Phe-Pro-Phe-paranitroanilide, as dissolved in trifluoroethanol containing 500 mM of LiCl was added to give a final concentration of 48 μM, whereupon reaction started. The reaction was carried out at 4° C. and the change in absorbance at 390 nm accompanying the liberation of the paranitroaniline product was monitored. A calculated initial rate minus the corresponding value in the absence of the enzyme was used as an index of rotamase activity. The rotamase inhibiting activity of a test compound was expressed in relative values (%) with respect to the control value of rotamase activity in the absence of the compound, and the concentration of the compound at which it was capable of inhibiting rotamase activity by 50% was calculated as an IC50 value from its concentration response curve.

The nature of data set [3]: Test 4: dissolution test in ethanol/water base. The format is physicochemical. As to conditions: organic solvent or mixture, thermodynamic from solid; base: 79 mL ethanol, water to 100 mL; stirred at 5° C. for 3 days; HPLC. On the procedure:
(Test 4) Dissolution Test
To 79 mL of ethanol, water was added to give a total volume of 100 mL, whereby a base was prepared. An excess amount of a test compound was put into a test tube, the prepared base was added, and the mixture was stirred at 5° C. for 3 days and passed through a membrane filter (0.45 μm); the resulting filtrate was diluted with acetonitrile and the concentration of the diluted solution was measured by HPLC to determine the solubility of the compound.

The test system of data set [4] is C57BL mice. Briefly: Test 5: hair development stimulating effect in shaven mouse model (Compound 40). In kind it is in vivo. As to conditions: 5% (w/v) solution in Test 4 base, 200 μL on shaven back once daily, day 15 of the administration and onward. The text has this: (§1) Criteria for scoring the hair development: 1=No hair development. 2=Hair development in less than 30% of the shaven area. 3=Hair development in at least 30% but less than 60% of the shaven area. 4=Hair development in at least 60% but less than 90% of the shaven area. 5=Hair development in at least 90% of the shaven area.
(Test 5) Test for Measuring Hair Development Stimulating Effect in Shaven Mouse Model
C57BL mice (female, ca. 7-wk old) were shaven on the back and the base prepared in Test 4 or a solution prepared by dissolving 5% (w/v) of Compound 40 in this base was administered by applying them to the shaven area in 200-μL portions once daily starting 3 days after the shaving (each group consisting of 10 heads.) Every 2 or 3 days after the start of the administration, the state of hair development in the shaven area was scored in accordance with the criteria described in Test 3.

For data set [5], the system named is proliferating cell nuclear antigen (PCNA). Briefly: Test 6: anagen induction stimulating effect in shaven mouse model, skin PCNA by ELISA. In kind it is in vivo. Conditions: 5% (w/v) in 80% ethanol, 200 μL once daily for 2 days, skin sampled about 4 hours after second administration, C57BL mice. How it is done:
(Test 6) Test for Measuring Anagen Induction Stimulating Effect in Shave Mouse Model
The anagen induction stimulating effect of a compound was measured by the following method with the quantity of skin PCNA being used as an index.
C57BL mice (female, ca. 7-wk old) were shaven on the back and a base (80% ethanol) or a solution prepared by dissolving 5% (w/v) of Compound 40, 52, 59, 61, 63, 64 or 66 in this base was administered by applying them to the shaven area in 200-μL portions once daily for 2 days starting 3 days after the shaving (each group consisting of 5 heads.) About 4 hours after the administration on the second day, the skin at the application site was sampled and homogenized in a buffer containing 50 mM Tris-HCl (pH 7.6), 150 mM NaCl, 1% NP-40, and a protease inhibitor. By a centrifugal separation procedure, a PCNA containing protein solution was prepared and the quantity of PCNA in the solution was measured with a PCNA-ELISA kit of Calbiochem, Inc.
(ELISA stands for enzyme-linked immunosorbent assay.)

Data set [6] concerns C57BL mice. Briefly: Test 3: hair development stimulating effect in shaven mouse model (Compound 1). The format is in vivo. Conditions: 5% (w/v) solution in Test 2 base, 200 μL on shaven back once daily, day 15 of the administration and onward. On the procedure: (Test 3) Test for Measuring Hair Development Stimulating Effect in Shaven Mouse Model
C57BL mice (female, ca. 7-wk old) were shaven on the back and the base prepared in Test 2 or a solution prepared by dissolving 5% (w/v) of Compound 1 in this base was administered by applying them to the shaven area in 200-μL portions once daily starting 3 days after the shaving (each group consisting of 10 heads.) Every 2 or 3 days after the start of the administration, the state of hair development in the shaven area was scored in accordance with the following criteria.
as §1

With `COc1ccc(OCc2nc([C@@H]3CCCN3C(=O)C(F)(F)C3(O)CC(C)(C)CC(C)(C)C3)no2)cc1OC` [comparative example, reference compound], in data set [1], the solubility amounted to 30.8 mg/mL.
On to `CC1(C)CC(C)(C)CC(O)(C(F)(F)C(=O)N2CCC[C@H]2c2cc(COc3cccnc3)on2)C1` [Compound 40, (S)-2,2-Difluoro-2-(1-hydroxy-3,3,5,5-tetramethylcyclohexyl)-1-(2-(5-((pyridin-3-yloxy)methyl)isoxazol-3-yl)pyrrolidin-1-yl)ethanone], for which the IC50 in data set [2] was found to be 83 nM. Moreover, the solubility at 3 days in data set [3] worked out at 113 mg/mL (≈ 237 mM). In addition, in data set [4], the “hair development scores versus base administered group” value is recorded as “higher than those in the base administered group”. Besides, the “quantity of skin PCNA versus base administered group” value in data set [5] is listed as “higher values for the quantity of skin PCNA than the group administered with the base”.
Regarding `CC1(C)CC(C)(C)CC(O)(C(F)(F)C(=O)N2CCC[C@H]2c2cc(COc3ccccc3)on2)C1` [Compound 52, (S)-2,2-Difluoro-2-(1-hydroxy-3,3,5,5-tetramethylcyclohexyl)-1-(2-(5-(phenoxymethyl)isoxazol-3-yl)pyrrolidin-1-yl)ethanone], the IC50 in data set [2] is 204 nM. Also, in data set [5], the “quantity of skin PCNA versus base administered group” value is “increases in the quantity of skin PCNA”.
Take `COc1ccc(OCc2cc([C@@H]3CCCN3C(=O)C(F)(F)C3(O)CC(C)(C)CC(C)(C)C3)no2)cc1OC` [Compound 1, (S)-1-(2-(5-((3,4-Dimethoxyphenoxy)methyl)isoxazol-3-yl)pyrrolidin-1-yl)-2,2-difluoro-2-(1-hydroxy-3,3,5,5-tetramethylcyclohexyl)ethanone]: the half-maximal inhibitory concentration (IC50) in data set [2] was determined as 49 nM. The solubility at 7 days in data set [1] (1,3-butylene glycol/water/ethanol base, organic solvent or mixture, thermodynamic from solid) came to 57.5 mg/mL. For the same compound, the “hair development scores versus base administered group” value in data set [6] is “higher than those in the base administered group”.
